Results from US9789044B2, “Compounds and methods for repelling blood-feeding arthropods and deterring their landing and feeding” (SCOTTS CANADA LTD, priority 2008, dated 2017).

Experiments:
mosquitoes = details: in vivo; cited from earlier work
Aedes aegypti [1] = experiment: General bioassay: treated human forearm in cage with host-seeking female mosquitoes, complete protection time (modified WHO 1996 protocol); format: in vivo; details: 10% formulation in mineral oil, 1.5 mg (total composition) per cm^2 on human forearm skin
Protocol: A black-eyed Liverpool strain of Aedes. aegypti was obtained from Dr. Carl Lowenberger, Simon Fraser University (SFU). Insects were reared under standardized conditions (60-70% relative humidity, 26-28° C., 14 h light:10 h dark photoperiod) in SFU's insectary. Neonate larvae that hatched in glass dishes of sterilized hypoxic water were transferred to trays of distilled water provisioned with Nutrafin® Basix Staple Food fish diet. Pupae were collected daily and separated by sex, and 15 females and 10 males were placed in a paper cup (7.5 cm diameter, 8.5 cm high) with a mesh lid. Emergent adults were fed a 10% (w/v) sucrose solution via braided cotton dental rolls. Arm-fed gravid females were offered water-containing paper cups, lined with paper-towel as an oviposition substrate. Candidate repellents and deterrents were bioassayed according to a modified protocol from the World Health Organization (1996). At least 1 hour prior to each bioassay, 75 host-seeking non blood-fed, nulliparous, 5- to 8-day-old female Aedes aegypti were placed into a wood-framed cage (26.5 cm on each side and 42.5 cm high) with a wooden floor, screened mesh sides and top, and a clear acrylic front fitted with a cotton stockinette sleeve (10 cm diameter). […] The time elapsed from experiment initiation to first bite was recorded as deterrent failure or complete protection time. […]

Culex quinquefasciatus = details: by itself or in combination with an adjuvant; cited from earlier work
Aedes aegypti [2] = details: by itself or in combination with an adjuvant; cited from earlier work
Anopheles gambiae = details: by itself or in combination with an adjuvant; cited from earlier work

C=CCSCCCCCCC(C)O (centres unmarked) [8-allylsulfanyloctan-2-ol]
repellency to mosquitoes (mosquitoes): repellent

C=CCSCCCCCCCCCO [9-allylsulfanylnonan-1-ol]
repellency to mosquitoes (mosquitoes): repellent

C=CCSCCCCCCCC(=O)N(CC)CC [(N,N)-diethyl-8-allylsulfanyl-octanamide]
average duration of protection from bites by Aedes aegypti (Aedes aegypti [1]; Experiment 7, 4 replicates): 156 min

C=CCSCCCCCCCCO [8-allylsulfanyl-1-octanol]
deterring biting, effectiveness relative to DEET (Culex quinquefasciatus): more effective than DEET | average duration of protection from bites by Aedes aegypti (Aedes aegypti [1]; Experiments 1-6, 3-4 replicates): 123 min | repellency to mosquitoes (mosquitoes): repellent | deterring biting, effectiveness relative to DEET (Aedes aegypti [2]): more effective than DEET | deterring biting, effectiveness relative to DEET (Anopheles gambiae): more effective than DEET
